Columns and labels:
[1] = test system: normal murine haematopoietic cells; conditions: cited from earlier work
[2] = test system: human T-cell acute lymphoblastic leukaemia (T-ALL) cell lines; conditions: cited from earlier work
Jurkat cells = experiment: Initial SAR: activity of PAL functionalized PTMA analogs; format: cell-based, human; conditions: in the concentrate range
From the text: FIG. 3. Initial SAR studies: Assessing activity of PAL functionalized PTMA analogs. […] (A) PA and Ph-PA show less toxic to healthy PBMCs compared to Jurkat cells. […] (B) Immunoblot of caspase-3 in Jurkat and PBMCs with indicated conditions.
• 1) Portimine A and its functional analogs show stereo-selective acute toxicity in cancer cells (FIG. 1). […] (B) Structure of portimine related analogs: phenyl-portimine A (Ph-PA, 36) and epi-portimine A (ePA, 38). Structure of fully functionalized portimine A-based epimeric probe pair: portimine A-diazirine-alkyne (PA-DA, 35-2) and epi-portimine A-diazirine-alkyne (ePA-DA, 35-1). (C) Cell viability analysis of portimine A and analogs. Jurkat cells were treated with increasing concentrations of portimine A and analogs for 24 hours. All presented data as mean of biological replicated experiments (n=3). […] Jurkat cells were treated with portimine A or analogs for 12 hours at 10 nM. […] Structurally related negative control ePA and PB are non-toxic in all cell types in the current concentrate range. PBMCs (25k per well), Jurkat (10k per well). […] Cell cycle analysis in Jurkat cells (FIG. 2). Jurkat cells were treated with 10 nM of indicated compounds for 24 hours, and propodium iodide was used to identify different stages of cells by flow cytometry. […] (A) PA and Ph-PA show less toxic to healthy PBMCs compared to Jurkat cells. […] (B) Immunoblot of caspase-3 in Jurkat and PBMCs with indicated conditions. […] (A) Pharmacokinetic studies of mouse intraperitoneal (i.p.) and oral (p.o.) administration for portimine (n=3). […] Impact of PA [0.3 or 1 mg/kg intraperitoneally] on MC38 tumor growth in WT mice (n=6). (C) Kaplan-Myer survival curve of WT MC38 tumor-bearing mice (n=6) after treatment with PA as described in (D). Mice were euthanized when tumor area exceeded 2000 mm^3. Statistical analysis was performed using ANOVA analysis followed by multiple comparisons test, * p≤0.05. Treatment condition: Jurkat (60 M per condition); PA-DA/ePA-DA concentration: 0.5 uM, PA or ePA: 5 uM; Incubate with probe with or without competitors (PA, ePA) for 30 min; UV irradiated for 20 min. (0.5 uM PA-DA add a no-UV condition), Standard pulldown & biotin-enrichment and western blot analysis (Elute condition: 2× sample buffer+500 uM biotin, boil for 20 mins); Primary antibody NMD3 (ProteinTech, 1:150), Actin (BioRad, 1:10000). […] Cell lysates were fractionated by sucrose gradient (5-50%) and each fraction were analyzed by western blot. eIF6 levels increase in 60S subunit fraction and decrease in ribosome-free fractions after PA treatment. […]

SMILES	toxicity to normal murine haematopoietic cells [1]	apoptosis in a panel of 14 human T-ALL cell lines [2]	activity of PAL functionalized PTMA analogs (Jurkat cells)
O=C(/C=C\n1cnc(-c2cc(C(F)(F)F)cc(C(F)(F)F)c2)n1)NNc1cnccn1 [KPT-330]	little toxicity	induced rapid apoptosis at low nanomolar concentrations	
CC(=O)O[C@@H]1CC(C)[C@@H]2CC[C@@]3(C[C@@H](O)C4=NCC[C@@]45CCC(c4ccc(C(=O)NCCC6(CCC#N)N=N6)cc4)=C[C@@H]5[C@H](O3)C1=O)O2 (stereo partly drawn) [epi-PTMA-Ac-DA]			no activity

From patent US20260242390A1, “TOTAL SYNTHESES OF PORTIMINE A AND ANALOGUES THEREOF AS SMALL MOLECULE MODULATORS OF NMD3” (priority 2023, published 2026)
